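In this assay, cells in 96-well plates receive the compound at five concentrations for 48 hours. Endpoints are linearly interpolated between the surrounding concentrations. Abbreviation: GI50, concentration required for 50% inhibition of growth.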 The source made the active and inactive calls. Rule as the data show it: active = GI50 up to about 1.1 µM and inactive = higher.
Tests used:
Experiment in all cases: growth of human tumour cells (NCI), 48 h
HL-60 = test system: HL-60
K562 = test system: K562
HCC 2998 = test system: HCC 2998
OVCAR-3 = test system: OVCAR-3
BT-549 = test system: BT-549
CAKI-1 = test system: CAKI-1
OVCAR-5 = test system: OVCAR-5
NCI-H226 = test system: NCI-H226
NCI-H522 = test system: NCI-H522
PC-3 = test system: PC-3
U-251 = test system: U-251
LOX IMVI = test system: LOX IMVI
MOLT-4 = test system: MOLT-4
HOP-62 = test system: HOP-62
786-0 = test system: 786-0
NCI/ADR-RES = test system: NCI/ADR-RES
HT-29 = test system: HT-29
UO-31 = test system: UO-31
A498 = test system: A498
SNB-75 = test system: SNB-75

SMILES	GI50 (HL-60)	GI50 (K562)	GI50 (HCC 2998)	GI50 (OVCAR-3)	GI50 (BT-549)	GI50 (CAKI-1)	GI50 (OVCAR-5)	GI50 (NCI-H226)	GI50 (NCI-H522)	GI50 (PC-3)	GI50 (U-251)	GI50 (LOX IMVI)	GI50 (MOLT-4)	GI50 (HOP-62)	GI50 (786-0)	GI50 (NCI/ADR-RES)	GI50 (HT-29)	GI50 (UO-31)	GI50 (A498)	GI50 (SNB-75)
O=c1c2c3c(sc2nc2n1sc1nc4sc5c(c4c(=O)n12)CCCC5)CCCC3	27.2 µM (inactive)	25.1 µM (inactive)	36.1 µM (inactive)	24.2 µM (inactive)	21.9 µM (inactive)	19.5 µM (inactive)	> 100 µM (inactive)	> 50.7 µM (inactive)	10.8 µM (inactive)	54.5 µM (inactive)	> 83 µM (inactive)	> 79.4 µM (inactive)	37.1 µM (inactive)	> 100 µM (inactive)	17.3 µM (inactive)	32.1 µM (inactive)	41.2 µM (inactive)	18.5 µM (inactive)	> 100 µM (inactive)	
CC(C)(C)OC(=O)N1CCc2c(n(C/C=C/c3ccccc3)[nH]c2=O)C1	27.8 µM (inactive)	46.6 µM (inactive)	> 100 µM (inactive)	> 100 µM (inactive)	> 100 µM (inactive)	> 100 µM (inactive)		> 100 µM (inactive)	> 51.2 µM (inactive)	> 100 µM (inactive)	> 100 µM (inactive)	> 100 µM (inactive)	33.6 µM (inactive)	> 80.7 µM (inactive)	> 100 µM (inactive)	26.2 µM (inactive)	> 100 µM (inactive)	61.2 µM (inactive)	> 100 µM (inactive)	> 100 µM (inactive)
Cc1ccc(CC(=O)Nc2ccc(NC(=O)CNC(=O)/C=C/c3ccc(-c4ccccc4)cc3)cc2C(=O)c2ccccc2)cc1	7.45 µM (inactive)	3.33 µM (inactive)	1.67 µM (inactive)	4.98 µM (inactive)	10.9 µM (inactive)	4.9 µM (inactive)	4.48 µM (inactive)	2.79 µM (inactive)	5.13 µM (inactive)	1.98 µM (inactive)	2.77 µM (inactive)	3.69 µM (inactive)	3.5 µM (inactive)	2.55 µM (inactive)	2.28 µM (inactive)	9.71 µM (inactive)	1.58 µM (inactive)	11.8 µM (inactive)	0.989 µM (active)	
Cc1c(C#N)c2nnn(-c3ccc([N+](=O)[O-])cc3)c(=O)n2c1-c1ccccc1	14.7 µM (inactive)	3.37 µM (inactive)	7.43 µM (inactive)	3.03 µM (inactive)	14.6 µM (inactive)	12.1 µM (inactive)	17.1 µM (inactive)	12.6 µM (inactive)	3.77 µM (inactive)	4.26 µM (inactive)	4.26 µM (inactive)	10.3 µM (inactive)		7.29 µM (inactive)	12.2 µM (inactive)	4.86 µM (inactive)	8.53 µM (inactive)	11.2 µM (inactive)	5.64 µM (inactive)	19.8 µM (inactive)
O=C(CCc1ccc(O)c(O)c1)c1ccc(O)c(O)c1O	11.5 µM (inactive)	13.2 µM (inactive)	49.8 µM (inactive)		> 10 µM (inactive)	17.8 µM (inactive)	21.2 µM (inactive)	11.5 µM (inactive)	11.9 µM (inactive)	34.5 µM (inactive)	14.8 µM (inactive)	27.7 µM (inactive)	22.3 µM (inactive)		35.2 µM (inactive)	26.5 µM (inactive)	26.7 µM (inactive)	52.4 µM (inactive)	17.9 µM (inactive)	19.1 µM (inactive)
COC(=O)C1(CCC(=O)N(C)c2ccccc2)NNC2C(=O)N(c3ccccc3)C(=O)C21 (configuration not stated)	> 10 µM (inactive)		> 10 µM (inactive)	> 10 µM (inactive)	> 10 µM (inactive)	> 10 µM (inactive)	> 10 µM (inactive)	> 10 µM (inactive)	> 10 µM (inactive)	> 10 µM (inactive)	> 10 µM (inactive)	> 10 µM (inactive)		> 10 µM (inactive)	> 10 µM (inactive)	> 10 µM (inactive)	> 10 µM (inactive)	> 10 µM (inactive)	> 10 µM (inactive)	> 10 µM (inactive)

— ChEMBL document CHEMBL1201862, “PubChem BioAssay data set” (2004)
